In ChEMBL document CHEMBL1121594, “Adaptive least-squares method applied to structure--activity correlation of hypotensive N-alkyl-N''-cyano-N'-pyridylguanidines” (J Med Chem, 1980) one finds TI rating data, which are given here for 75 molecules.

Common to all, as to assay type: organism-based
Common to all, as to conditions: in vivo

Series [1] has as its system Rattus norvegicus. Nature of the series: The hypotensive activity expressed as rating of therapeutic index (1/30> MED/LD50 >=1/200).
Series [2] deals with Rattus norvegicus. Nature of the series: The hypotensive activity expressed as rating of therapeutic index (MED/LD50 <1/200).
In series [3] the test system is Rattus norvegicus. Nature of the series: The hypotensive activity expressed as rating of therapeutic index (MED/LD50 >=1/30).

The molecule `CC(/N=C(\NC#N)Nc1ccncc1)C1CC1` (stereo not given) gave a TI rating with Rattus norvegicus [1] of 2. In the series with Rattus norvegicus [2], `CC(C)(C)/N=C(\NC#N)Nc1cccnc1Cl` displayed a TI rating of 3. In the series with Rattus norvegicus [1], `CC(C)C(C)(C)/N=C(\NC#N)Nc1ccncc1` yielded a TI rating of 2. In the series with Rattus norvegicus [2], `CCC(CC)(CC)/N=C(\NC#N)Nc1ccncc1` registered a TI rating of 3. Take `CC(C)CC(C)(C)/N=C(\NC#N)Nc1cccnc1`: the TI rating in the series on Rattus norvegicus [2] is 3. In turn, `Cc1cc(C)nc(N/C(=N/C(C)(C)C)NC#N)c1` showed a TI rating with Rattus norvegicus [3] of 1. For `Cc1cc(C)c(/N=C(\NC#N)NC(C)(C)C)c(C)n1`, the TI rating in the series with Rattus norvegicus [3] was 1. In turn, `N#CN/C(=N\Cc1ccccc1)Nc1ccncc1` displayed a TI rating with Rattus norvegicus [1] of 2.

The molecule `CCCCC/N=C(\NC#N)Nc1cccnc1` had a TI rating in the series on Rattus norvegicus [1] of 2. The same measure, in the same setting: to `N#CN/C(=N\C1CCCCC1)Nc1cccnc1` belongs 2. Regarding `CC1(/N=C(\NC#N)Nc2cccnc2)CCC1`, the TI rating with Rattus norvegicus [3] came out at 1. In the series on Rattus norvegicus [1], `CC(/N=C(\NC#N)Nc1ccncc1)c1ccccc1` (stereo not given) gave a TI rating of 2. Regarding `N#CNC(=N)Nc1cccnc1`, in the series with Rattus norvegicus [3], the TI rating amounted to 1. `CC(C)/N=C(\NC#N)Nc1cccnc1` returned a TI rating in the series with Rattus norvegicus [2] of 3. Consider `CC(C)(C)C/N=C(\NC#N)Nc1ccncc1`, for which the TI rating with Rattus norvegicus [1] is 2. Consider `CCC(C)(C)/N=C(\NC#N)Nc1ccncc1`, for which, in the series on Rattus norvegicus [2], the TI rating came to 3. Turning to `COc1ccc(/N=C(\NC#N)NC(C)(C)C)c(OC)n1`, the TI rating in the series with Rattus norvegicus [3] is 1.

Take `N#CN/C(=N\C12C[C@H]3C[C@@H](C1)C[C@@H](C2)C3)Nc1cccnc1`: the TI rating with Rattus norvegicus [3] was determined as 1. Consider `CC(C)(C)/N=C(\NC#N)Nc1ccc(Cl)nc1Cl`, for which the TI rating in the series on Rattus norvegicus [3] is 1.

`N#CN/C(=N\CCc1ccccc1)Nc1cccnc1` returned a TI rating in the series on Rattus norvegicus [3] of 1. Molecule `CCC(CC)/N=C(\NC#N)Nc1ccncc1` returned a TI rating in the series on Rattus norvegicus [1] of 2.

Molecule `N#CN/C(=N\CCc1ccccc1)Nc1ccncc1` had a TI rating with Rattus norvegicus [1] of 2. Turning to `CCOCC/N=C(\NC#N)Nc1cccnc1`, in the series on Rattus norvegicus [3], the TI rating is 1. As for `C=C(C)C/N=C(\NC#N)Nc1cccnc1`, the TI rating in the series with Rattus norvegicus [1] came out at 2. Consider `CC(C)(C)/N=C(\NC#N)Nc1ccc(Cl)cn1`, for which the TI rating with Rattus norvegicus [3] came out at 1. In turn, `CC(C)(C)CC(C)(C)/N=C(\NC#N)Nc1cccnc1` gave a TI rating in the series on Rattus norvegicus [3] of 1. In the case of `N#CN/C(=N\c1ccccc1)Nc1cccnc1`, the TI rating with Rattus norvegicus [1] was 2.

`CC(C)(C)/N=C(\NC#N)Nc1ccncc1` gave a TI rating with Rattus norvegicus [2] of 3. Consider `CC(C)C(/N=C(\NC#N)Nc1cccnc1)C(C)C`, for which, in the series with Rattus norvegicus [2], the TI rating stood at 3.

Turning to `N#CN/C(=N\c1ccccc1)Nc1ccncc1`, in the series with Rattus norvegicus [3], the TI rating was determined as 1. Molecule `CCCC/N=C(\NC#N)Nc1cccnc1` yielded a TI rating with Rattus norvegicus [1] of 2.

`CCC(C)C(C)/N=C(\NC#N)Nc1ccncc1` (stereo not given) had a TI rating in the series on Rattus norvegicus [3] of 1.

In the series with Rattus norvegicus [3], `CCCCCCC/N=C(\NC#N)Nc1cccnc1` gave a TI rating of 1. As to `COc1ccc(N/C(=N/C(C)(C)C)NC#N)cn1`, the TI rating with Rattus norvegicus [3] was 1. In the series on Rattus norvegicus [2], `CCC(C)(CC)/N=C(\NC#N)Nc1cccnc1` had a TI rating of 3.

With `CC(C)(C)/N=C(\NC#N)Nc1cncc(Br)c1`, in the series on Rattus norvegicus [2], the TI rating was found to be 3. For `CCN(CC)CC/N=C(\NC#N)Nc1cccnc1`, the TI rating with Rattus norvegicus [3] was determined as 1. Turning to `CCC(C)(C)/N=C(\NC#N)Nc1c(C)cc(C)nc1C`, in the series with Rattus norvegicus [3], the TI rating is reported as 1. Same read-out and setting: to `C/N=C(\NC#N)Nc1cccnc1` belongs 1. In the series on Rattus norvegicus [2], `CC(C)(C)/N=C(/NC#N)Nc1cccnc1` yielded a TI rating of 3.

Take `CCC(C)(C)NC(=NC#N)Nc1cccnc1`: the TI rating in the series on Rattus norvegicus [2] amounted to 3. `N#CN/C(=N\C1CCCCC1)Nc1ccccn1`: the TI rating in the series with Rattus norvegicus [3] is reported as 1.

`CC(C)(C)C/N=C(/NC#N)Nc1cccnc1`: in the series on Rattus norvegicus [2], the TI rating came to 3. On to `CCC(C)/N=C(\NC#N)Nc1cccnc1` (stereo not given), for which the TI rating with Rattus norvegicus [1] is on record as 2. `N#CN/C(=N\C1CCCCC1)Nc1ccncc1` yielded a TI rating with Rattus norvegicus [3] of 1. `CC(C)(C)/N=C(\NC#N)Nc1ccccn1` registered a TI rating in the series on Rattus norvegicus [3] of 1. On to `CCCC(C)(C)/N=C(\NC#N)Nc1cccnc1`, for which the TI rating with Rattus norvegicus [2] was 3. `CC(C)(C)CC(C)(C)/N=C(\NC#N)Nc1ccncc1` yielded a TI rating with Rattus norvegicus [3] of 1. In turn, `CCC(CC)(CC)/N=C(\NC#N)Nc1cccnc1` had a TI rating in the series on Rattus norvegicus [2] of 3. In turn, `CCC(C)(CC)/N=C(\NC#N)Nc1ccncc1` showed a TI rating in the series on Rattus norvegicus [2] of 3.

Take `CC(C)(C)C(C)(C)/N=C(\NC#N)Nc1cccnc1`: in the series with Rattus norvegicus [3], the TI rating turned out to be 1.

As for `CC(C)C/N=C(\NC#N)Nc1cccnc1`, the TI rating in the series with Rattus norvegicus [1] was determined as 2. In the series with Rattus norvegicus [3], `CC(C)C(/N=C(\NC#N)Nc1ccncc1)C(C)C` showed a TI rating of 1. As to `Cc1cccc(C)c1/N=C(\NC#N)Nc1cccnc1`, the TI rating in the series on Rattus norvegicus [3] was found to be 1. Take `CCC(CC)/N=C(\NC#N)Nc1cccnc1`: the TI rating in the series with Rattus norvegicus [3] is 1. For the molecule `N#CN/C(=N\C1CC1)Nc1cccnc1`, the TI rating in the series with Rattus norvegicus [1] is 2.

In turn, `CC(C)CC/N=C(\NC#N)Nc1cccnc1` displayed a TI rating in the series on Rattus norvegicus [1] of 2. For the molecule `N#CN/C(=N\Cc1ccccc1)Nc1cccnc1`, in the series on Rattus norvegicus [1], the TI rating was found to be 2.

`CC(C)C(C)(C)/N=C(\NC#N)Nc1cccnc1`: the TI rating with Rattus norvegicus [2] amounted to 3. As for `CCCCC(CC)C/N=C(\NC#N)Nc1cccnc1` (stereo not given), in the series with Rattus norvegicus [3], the TI rating is 1. As for `N#CN/C(=N\CC1CCCO1)Nc1cccnc1` (stereo not given), the TI rating in the series on Rattus norvegicus [3] is 1. For `N#CN/C(=N\Cc1ccco1)Nc1cccnc1`, the TI rating in the series on Rattus norvegicus [1] is given as 2. On to `N#CN/C(=N\c1cccnc1)N1CCCCC1`, for which the TI rating in the series with Rattus norvegicus [1] is recorded as 2. Molecule `CC(C)CCC(C)/N=C(\NC#N)Nc1ccncc1` (stereo not given) yielded a TI rating in the series with Rattus norvegicus [3] of 1.

In the case of `CC(C)CC(C)/N=C(\NC#N)Nc1ccncc1` (stereo not given), the TI rating in the series with Rattus norvegicus [3] worked out at 1. For the molecule `CCC/N=C(\NC#N)Nc1cccnc1`, in the series on Rattus norvegicus [1], the TI rating is on record as 2. The molecule `CC(C)(NC(=NC#N)Nc1cccnc1)c1ccccc1` showed a TI rating in the series with Rattus norvegicus [3] of 1. Molecule `N#CN/C(=N\C12C[C@H]3C[C@@H](C1)C[C@@H](C2)C3)Nc1ccncc1` displayed a TI rating with Rattus norvegicus [2] of 3.

Consider `CC(/N=C(/NC#N)Nc1cccnc1)C(C)(C)C` (stereo not given), for which the TI rating in the series on Rattus norvegicus [2] is recorded as 3. For `N#CN/C(=N\C1CCCC1)Nc1cccnc1`, the TI rating with Rattus norvegicus [1] turned out to be 2. Molecule `CCC(/N=C(\NC#N)Nc1ccncc1)C(C)C` (stereo not given) came in with a TI rating in the series on Rattus norvegicus [1] of 2. `N#CN/C(=N\C(C1CC1)C1CC1)Nc1ccncc1` gave a TI rating in the series on Rattus norvegicus [1] of 2. `CC(C)CC(C)(C)/N=C(\NC#N)Nc1ccncc1` registered a TI rating in the series on Rattus norvegicus [1] of 2.

With `N#CN/C(=N\C1CCCCCCC1)Nc1ccncc1`, in the series on Rattus norvegicus [3], the TI rating worked out at 1. In the series on Rattus norvegicus [1], `CC(C)(C)C(C)(C)/N=C(\NC#N)Nc1ccncc1` gave a TI rating of 2.
